PubChem BioAssay (NCI)
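Assay format: 96-well plates, 48-hour exposure. GI50 is the concentration that inhibits growth by half. TGI: total growth inhibition.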

Tests used:
Assay in all cases: NCI tumour cell line growth inhibition, 48 h
[1] = tested on: SK-OV-3 ovarian
[2] = tested on: 786-0 renal
[3] = tested on: SNB-75 CNS
[4] = tested on: U251 CNS
[5] = tested on: SNB-19 CNS
[6] = tested on: MALME-3M melanoma
[7] = tested on: SN12C renal
[8] = tested on: SW-620 colon
[9] = tested on: NCI-H522 lung
[10] = tested on: MDA-MB-231 breast
[11] = tested on: HOP-62 NSCLC
[12] = tested on: NCI-H23 lung
[13] = tested on: SK-MEL-28 melanoma
[14] = tested on: K-562 leukemia
[15] = tested on: BT-549 breast
[16] = tested on: SF-539 CNS
[17] = tested on: NCI/ADR-RES ovarian
[18] = tested on: OVCAR-3 ovarian
[19] = tested on: HCT-116 colon
[20] = tested on: IGROV1 ovarian
[21] = tested on: MCF7 breast
[22] = tested on: HCC-2998 colon
[23] = tested on: NCI-H460 lung
[24] = tested on: UO-31 renal
[25] = tested on: A498 renal
[26] = tested on: SF-268 CNS
[27] = tested on: OVCAR-8 ovarian
[28] = tested on: PC-3 prostate
[29] = tested on: SF-295 CNS
[30] = tested on: UACC-257 melanoma
[31] = tested on: EKVX NSCLC
[32] = tested on: UACC-62 melanoma
[33] = tested on: DU-145 prostate
[34] = tested on: M14 melanoma
[35] = tested on: HL-60(TB) leukemia
[36] = tested on: CAKI-1 renal
[37] = tested on: SK-MEL-5 melanoma
[38] = tested on: OVCAR-4 ovarian
[39] = tested on: HCT-15 colon
[40] = tested on: COLO 205 colon
[41] = tested on: MDA-MB-435
[42] = tested on: HOP-92 NSCLC
[43] = tested on: KM12 colon
[44] = tested on: ACHN renal
[45] = tested on: RPMI-8226 leukemia
[46] = tested on: CCRF-CEM leukemia
[47] = tested on: MOLT-4 leukemia
[48] = tested on: HT29 colon
[49] = tested on: SR leukemia
[50] = tested on: T-47D breast
[51] = tested on: OVCAR-5 ovarian
[52] = tested on: HS 578T breast
[53] = tested on: LOX IMVI melanoma
[54] = tested on: NCI-H226 lung
[55] = tested on: SK-MEL-2 melanoma
[56] = tested on: RXF 393 renal
[57] = tested on: A549 NSCLC
[58] = tested on: TK-10 renal

## CCOc1ccc(NC(=O)Nc2cc(C(C)C)ccc2C)cc1
[1]
  GI50: 12.3 µM
  TGI: 35.4 µM
[2]
  GI50: 2.64 µM
  TGI: 6.72 µM
[3]
  GI50: 2.82 µM
  TGI: 10.2 µM
[4]
  GI50: 5.89 µM
  TGI: 17.8 µM
[5]
  GI50: 10.4 µM
  TGI: 39 µM
[6]
  GI50: 3.74 µM
  TGI: 18.2 µM
[7]
  GI50: 5.15 µM
  TGI: 24 µM
[8]
  GI50: 11.2 µM
  TGI: > 100 µM
[9]
  GI50: 9.53 µM
  TGI: 78.3 µM
[10]
  GI50: 3.79 µM
  TGI: 15.8 µM
[11]
  GI50: 8.78 µM
  TGI: 22.8 µM
[12]
  GI50: 16.4 µM
  TGI: 98.1 µM
[13]
  GI50: 8.32 µM
  TGI: 41.8 µM
[14]
  GI50: 21.4 µM
  TGI: > 100 µM
[15]
  GI50: 1.58 µM
  TGI: 6.24 µM
[16]
  GI50: 4.39 µM
  TGI: 16.6 µM
[17]
  GI50: 6.96 µM
  TGI: 44.7 µM
[18]
  GI50: 5.33 µM
  TGI: 13.6 µM
[19]
  GI50: 5.73 µM
  TGI: 16.1 µM
[20]
  GI50: 6.37 µM
  TGI: 15.7 µM
[21]
  GI50: 11.8 µM
  TGI: > 57.8 µM
[22]
  GI50: 11 µM
  TGI: > 92.2 µM
[23]
  GI50: 9.22 µM
  TGI: > 100 µM
[24]
  GI50: 4.82 µM
  TGI: 16.9 µM
[25]
  GI50: 3.65 µM
  TGI: 18.6 µM
[26]
  GI50: 4.36 µM
  TGI: 14.7 µM
[27]
  GI50: 3.67 µM
  TGI: 14.8 µM
[28]
  GI50: 11.4 µM
  TGI: > 58 µM
[29]
  GI50: 7.45 µM
  TGI: 25.4 µM
[30]
  GI50: 8.83 µM
  TGI: 44.9 µM
[31]
  GI50: 8.55 µM
  TGI: > 96.7 µM
[32]
  GI50: 16.2 µM
  TGI: > 89.8 µM
[33]
  GI50: 9.57 µM
  TGI: > 58.4 µM
[34]
  GI50: 21.9 µM
  TGI: > 100 µM
[35]
  GI50: > 57.9 µM
  TGI: > 100 µM
[36]
  GI50: 6.35 µM
  TGI: 28.2 µM
[37]
  GI50: > 51.9 µM
  TGI: > 100 µM
[38]
  GI50: 3.33 µM
  TGI: 11.5 µM
[39]
  GI50: 28.7 µM
  TGI: > 100 µM
[40]
  GI50: 15.3 µM
  TGI: > 100 µM
[41]
  GI50: 17.6 µM
  TGI: > 100 µM
[42]
  GI50: 1.83 µM
  TGI: 7.54 µM
[43]
  GI50: 11.6 µM
  TGI: > 100 µM
[44]
  GI50: 4.37 µM
  TGI: 14.7 µM
[45]
  GI50: 10.9 µM
  TGI: > 65.8 µM
[46]
  GI50: > 25.5 µM
  TGI: > 100 µM
[47]
  GI50: 9.57 µM
  TGI: > 100 µM
[48]
  GI50: 32.8 µM
  TGI: > 100 µM
[49]
  GI50: 0.952 µM
  TGI: > 22.9 µM
[50]
  GI50: 8.94 µM
  TGI: > 100 µM
[51]
  GI50: 11.9 µM
  TGI: > 76 µM
[52]
  GI50: 2.32 µM
  TGI: 7.06 µM
[53]
  GI50: 8.9 µM
  TGI: > 100 µM
[54]
  GI50: 10.2 µM
  TGI: 50.1 µM
[55]
  GI50: 18 µM
  TGI: 55.6 µM
[56]
  GI50: 1.64 µM
  TGI: 4.9 µM
[57]
  GI50: 4.56 µM
  TGI: 17.6 µM
[58]
  GI50: 2.21 µM
  TGI: 6.61 µM
